Structures can show the parent of a compound that is named as a salt.
Key:
SSTR5 [1] = target: T1, SSTR5 (Homo sapiens, UniProt P35346); experiment: Functional assay of inhibition of SSTR5 mediated cyclic AMP production in SSTR5 expressing CHO cells; type: cell-based, human; settings: forskolin (FSK) plus SS-28, read-out: cAMP IC50
SSTR5 [2] = target: T1, SSTR5; experiment: SSTR5 receptor-ligand binding assay, CHO-K1 cell membranes, 125I-SRIF radioligand; parameters: expressed in transfected cells; settings: Table 4, read-out: Bnd IC50
Method: The receptor-ligand binding assays of all 5 subtype of SSTRs were performed with membranes isolated from Chinese hamster ovary (CHO)-K1 cells stably expressing the cloned human somatostatin receptors in 96-well format as previous reported. (Yang et al. PNAS 95:10836-10841, (1998), Birzin et al. Anal. Biochem. 307:159-166, (2002)).
The stable cell lines for SSTR1-SSTR5 were developed by stably transfecting with DNA for all five SSTRs using Lipofectamine. Neomycin-resistant clones were selected and maintained in medium containing 400 μg/mL G418 (Rohrer et al. Science 282:737-740, (1998)). Binding assays were performed using (3-125I-Tyr11)-SRIF-14 or (3-125I-Tyrl 1)-SRIF-28 as the radioligand (used at 0.1 nM) and The Packard Unifilter assay plate. The assay buffer consisted of 50 mM TrisHCl (pH 7.8) with 1 mM EGTA, 5 mM MgCl2, leupeptin (10 μg/mL), pepstatin (10 μg/mL), bacitracin (200 μg/mL), and aprotinin (0.5 μg/mL). CHO-K1 cell membranes, radiolabeled somatostatin, and unlabeled test compounds were resuspended or diluted in this assay buffer. Unlabeled test compounds were examined over a range of concentrations from 0.01 nM to 10,000 nM. The Ki values for compounds were determined as described by Cheng and Prusoff Biochem Pharmacol. 22:3099-3108 (1973).

T1 sequence (P35346 whole entry): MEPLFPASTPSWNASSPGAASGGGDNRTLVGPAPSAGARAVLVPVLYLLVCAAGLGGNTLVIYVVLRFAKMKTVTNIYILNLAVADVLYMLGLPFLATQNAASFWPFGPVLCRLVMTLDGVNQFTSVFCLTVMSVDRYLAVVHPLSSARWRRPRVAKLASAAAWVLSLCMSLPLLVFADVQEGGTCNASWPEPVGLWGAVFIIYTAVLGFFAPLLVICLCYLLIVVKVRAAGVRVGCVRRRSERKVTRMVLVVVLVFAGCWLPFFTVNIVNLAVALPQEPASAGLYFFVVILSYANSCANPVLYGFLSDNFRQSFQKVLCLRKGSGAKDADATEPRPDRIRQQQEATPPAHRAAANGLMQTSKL

Molecule	IC50 (SSTR5 [1]) [nM]	IC50 (SSTR5 [2]) [nM]
CC(C)(C)n1cc(CN2CCC3(CC2)CC(c2ccc(C(=O)O)cc2)=NO3)c(-c2ccc(F)c(F)c2F)n1 [Example 3, 4-(8-{[1-tert-Butyl-3-(2,3,4-trifluorophenyl)-1H-pyrazol-4-yl]methyl})-1-oxa-2,8-diazaspiro[4.5]dec-2-en-3-yl)benzoic acid, TFA salt]	8.2	2.8
CCOc1ccc(-c2cc(F)c(F)cc2F)c(CN2CCC3(CC2)CC(c2ccc(C(=O)O)cc2)=NO3)c1 [Example 10, 4-{8-[(4-Ethoxy-2′,4′,5′-trifluorobiphenyl-2-yl)methyl]-1-oxa-2,8-diazaspiro[4.5]dec-2-en-3-yl}benzoic acid]	5.7	1.8
CCOc1cc(CN2CCC3(CC2)CC(c2ccc(C(=O)O)cn2)=NO3)cc(OCC)c1-c1ccc(F)cc1 [Example 25, 6-{8-[(2,6-Diethoxy-4′-fluorobiphenyl-4-yl)methyl]-1-oxa-2,8-diazaspiro[4.5]dec-2-en-3-yl}pyridine-3-carboxylic acid]	2.6	1.2
CCOc1cc(CN2CCC3(CC2)CC(c2ccc(C(=O)O)cc2)=NO3)ccc1Cl [Example 12, 4-[8-(4-Chloro-3-ethoxybenzyl)-1-oxa-2,8-diazaspiro[4.5]dec-2-en-3-yl]benzoic acid]	1.3	7.5
CCOc1ccc(-c2ccc(F)cc2F)c(CN2CCC3(CC2)CC(c2ccc(C(=O)O)cc2)=NO3)c1 [Example 4, 4-{8-[(4-Ethoxy-2′,4′-difluorobiphenyl-2-yl)methyl]-1-oxa-2,8-diazaspiro[4.5]dec-2-en-3-yl}benzoic acid]	3	2.9
CCOc1ccc(-c2ccc(F)c(F)c2F)c(CN2CCC3(CC2)CC(c2ccc(C(=O)O)cn2)=NO3)c1 [Example 30, 6-{8-[(4-Ethoxy-2′,3′,4′-trifluorobiphenyl-2-yl)methyl]-1-oxa-2,8-diazaspiro[4.5]dec-2-en-3-yl}pyridine-3-carboxylic acid]	0.76	0.41
CCOc1cc(CN2CCC3(CC2)CC(c2ccc(C(=O)O)cc2)=NO3)c(-c2ccc(F)nc2)cc1C [Example 26, 4-{8-[5-Ethoxy-2-(6-fluoropyridin-3-yl)-4-methylbenzyl]-1-oxa-2,8-diazaspiro[4.5]dec-2-en-3-yl}benzoic acid]	0.32	0.33
4-{8-[(4,4-Dimethyl-3,4-dihydro-2-H-chromen-6-yl)methyl]-1-oxa-2,8-diazaspiro[4.5]dec-2-en-3-yl}benzoic acid, TFA salt [Example 2]	5.2	4.3
CCOc1cc(CN2CCC3(CC2)CC(c2ccc(C(=O)O)cc2)=NO3)cc(OCC)c1-c1ccc(F)cc1 [Example 1, 4-{8-[(2,6-Diethoxy-4′-fluorobiphenyl-4-yl)methyl]-1-oxa-2,8-diazaspiro[4.5]dec-2-en-3-yl}benzoic acid, TFA salt]	0.72	1.2
CCOc1cc(CN2CCC3(CC2)CC(c2ccc(C(=O)O)cc2)=NO3)cc(OCC)c1OCC(F)(F)F [Example 5, 4-{8-[3,5-Diethoxy-4-(2,2,2-trifluoroethoxy)benzyl]-1-oxa-2,8-diazaspiro[4.5]dec-2-en-3-yl}benzoic acid]	2.4	6
